Results reported in PMC11631053, “A receptor-based assay to study the sweet and bitter tastes of sweeteners and binary sweet blends: the SWEET project” (Chemical Senses, 2024).
Read-outs that look alike come from different tables or passages of the source.

Legend:
TAS2R1 = target: T1, TAS2R1 (Homo sapiens, UniProt Q9NYW7); assay: Calcium mobilization assay, HEK293T-Gα16gust44 cells expressing TAS2R1; details: for Response of TAS2R1: maximal concentration tested: sucralose 100 mM, neotame 30 µM, Ace-K 300 mM, RebA 4 mM, RebM 4 mM, mogroside V 5 mM, erythritol 200 mM, D-allulose 500 mM, thaumatin 100 mM
T1 sequence (Q9NYW7 1-299): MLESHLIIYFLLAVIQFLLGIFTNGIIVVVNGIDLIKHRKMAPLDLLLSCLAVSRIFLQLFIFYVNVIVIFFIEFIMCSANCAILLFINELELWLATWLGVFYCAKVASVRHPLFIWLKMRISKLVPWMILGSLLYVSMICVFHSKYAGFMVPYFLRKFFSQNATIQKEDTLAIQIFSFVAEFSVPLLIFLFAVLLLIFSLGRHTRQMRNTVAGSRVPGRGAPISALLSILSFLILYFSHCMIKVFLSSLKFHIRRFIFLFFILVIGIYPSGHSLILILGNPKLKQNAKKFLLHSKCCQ
Procedure: (§1) Different concentration ranges were tested depending on the injected sweet compound. […] All of the concentration-receptor combinations were measured in triplicate, and each experiment was repeated at least 3 times. The Ca^2+ change was expressed as a fractional change in fluorescent light intensity: ΔF/F = (F − F0)/F0, where F was the fluorescent light intensity at each point, and F0 was the value of fluorescent light emitted prior to stimulus application. To calculate dose–response relationships, the changes in fluorescence upon stimulus application were averaged, mock-subtracted and baseline-corrected. The resulting obtained dose–response data were adjusted by using a 4-parameter logistic equation.

TAS2R42 = target: T2, TAS2R42 (Homo sapiens, UniProt Q7RTR8); assay: Calcium mobilization assay, HEK293T-Gα16gust44 cells expressing TAS2R42; details: maximal concentration tested: sucralose 100 mM, neotame 30 µM, Ace-K 300 mM, RebA 4 mM, RebM 4 mM, mogroside V 5 mM, erythritol 200 mM, D-allulose 500 mM, thaumatin 100 mM
T2 sequence (Q7RTR8 1-314): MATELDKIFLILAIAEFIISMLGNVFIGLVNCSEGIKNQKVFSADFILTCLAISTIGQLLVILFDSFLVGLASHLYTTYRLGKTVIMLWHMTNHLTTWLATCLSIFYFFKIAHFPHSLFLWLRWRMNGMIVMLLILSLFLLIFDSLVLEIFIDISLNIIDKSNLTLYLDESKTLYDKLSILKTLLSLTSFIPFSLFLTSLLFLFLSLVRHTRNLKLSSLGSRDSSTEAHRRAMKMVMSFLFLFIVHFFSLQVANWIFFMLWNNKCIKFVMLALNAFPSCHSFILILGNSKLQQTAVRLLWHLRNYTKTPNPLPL
Procedure: Different concentration ranges were tested depending on the injected sweet compound. […] All of the concentration-receptor combinations were measured in triplicate, and each experiment was repeated at least 3 times. The Ca^2+ change was expressed as a fractional change in fluorescent light intensity: ΔF/F = (F − F0)/F0, where F was the fluorescent light intensity at each point, and F0 was the value of fluorescent light emitted prior to stimulus application. To calculate dose–response relationships, the changes in fluorescence upon stimulus application were averaged, mock-subtracted and baseline-corrected. The resulting obtained dose–response data were adjusted by using a 4-parameter logistic equation. The half-maximal effective concentration (EC50) was calculated by using SigmaPlot software (Systat Software, San Jose, CA, USA) as described in supplemental Supplementary Figs. S1, S2, and S3.

TAS1R2/TAS1R3 = target: T3, TAS1R2/TAS1R3 (Homo sapiens, UniProt Q7RTX0+Q8TE23); assay: Calcium mobilization assay, HEK293T-Gα16gust44 cells expressing the sweet taste receptor
T3 sequence (Q8TE23 20-839): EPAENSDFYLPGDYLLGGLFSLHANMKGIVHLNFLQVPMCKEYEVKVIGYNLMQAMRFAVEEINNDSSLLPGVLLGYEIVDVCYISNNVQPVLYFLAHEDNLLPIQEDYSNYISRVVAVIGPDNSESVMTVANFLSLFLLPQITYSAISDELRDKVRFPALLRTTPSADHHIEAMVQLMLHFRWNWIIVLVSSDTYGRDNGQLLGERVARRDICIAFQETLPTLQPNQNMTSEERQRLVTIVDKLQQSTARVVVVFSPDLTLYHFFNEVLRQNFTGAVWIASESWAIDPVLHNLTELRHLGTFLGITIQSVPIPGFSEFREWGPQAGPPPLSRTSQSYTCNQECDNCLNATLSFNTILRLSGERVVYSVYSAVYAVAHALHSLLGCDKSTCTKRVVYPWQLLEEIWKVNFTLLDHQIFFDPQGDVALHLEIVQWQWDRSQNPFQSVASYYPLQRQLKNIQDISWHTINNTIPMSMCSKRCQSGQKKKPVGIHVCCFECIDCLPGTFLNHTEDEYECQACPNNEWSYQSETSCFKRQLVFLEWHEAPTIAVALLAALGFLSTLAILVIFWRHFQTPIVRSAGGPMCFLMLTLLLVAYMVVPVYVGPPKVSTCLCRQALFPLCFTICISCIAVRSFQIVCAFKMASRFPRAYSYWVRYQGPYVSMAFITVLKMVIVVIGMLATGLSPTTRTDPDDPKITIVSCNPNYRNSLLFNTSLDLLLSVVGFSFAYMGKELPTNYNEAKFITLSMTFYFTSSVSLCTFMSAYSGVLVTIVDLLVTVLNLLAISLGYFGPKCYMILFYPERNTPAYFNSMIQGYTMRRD
T3 sequence (Q7RTX0 21-852): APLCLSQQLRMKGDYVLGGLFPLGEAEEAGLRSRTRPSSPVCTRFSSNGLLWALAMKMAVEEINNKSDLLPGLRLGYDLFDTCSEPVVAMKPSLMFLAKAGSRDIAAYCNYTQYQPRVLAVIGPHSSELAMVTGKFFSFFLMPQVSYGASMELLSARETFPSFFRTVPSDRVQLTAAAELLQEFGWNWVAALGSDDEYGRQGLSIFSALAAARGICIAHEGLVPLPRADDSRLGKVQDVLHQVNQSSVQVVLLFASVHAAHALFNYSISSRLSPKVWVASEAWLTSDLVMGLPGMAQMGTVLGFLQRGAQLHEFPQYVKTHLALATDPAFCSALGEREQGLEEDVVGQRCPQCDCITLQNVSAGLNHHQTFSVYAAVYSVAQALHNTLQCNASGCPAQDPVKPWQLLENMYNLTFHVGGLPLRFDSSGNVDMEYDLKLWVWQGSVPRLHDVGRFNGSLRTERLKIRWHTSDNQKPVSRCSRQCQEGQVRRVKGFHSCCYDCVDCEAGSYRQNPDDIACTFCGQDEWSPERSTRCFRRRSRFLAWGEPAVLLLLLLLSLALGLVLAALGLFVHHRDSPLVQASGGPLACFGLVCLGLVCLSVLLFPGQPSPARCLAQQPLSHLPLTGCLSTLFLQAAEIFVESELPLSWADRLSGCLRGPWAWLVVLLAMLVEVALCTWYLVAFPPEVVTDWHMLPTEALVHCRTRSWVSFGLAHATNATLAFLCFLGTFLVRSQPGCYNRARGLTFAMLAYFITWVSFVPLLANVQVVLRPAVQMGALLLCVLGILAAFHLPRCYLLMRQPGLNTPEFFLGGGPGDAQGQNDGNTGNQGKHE
Procedure: as §1

TAS2R16 = target: T4, TAS2R16 (Homo sapiens, UniProt Q9NYV7); assay: Calcium mobilization assay, HEK293T-Gα16gust44 cells expressing TAS2R16; details: for Response of TAS2R16: maximal concentration tested: sucralose 100 mM, neotame 30 µM, Ace-K 300 mM, RebA 4 mM, RebM 4 mM, mogroside V 5 mM, erythritol 200 mM, D-allulose 500 mM, thaumatin 100 mM
T4 sequence (Q9NYV7 1-291): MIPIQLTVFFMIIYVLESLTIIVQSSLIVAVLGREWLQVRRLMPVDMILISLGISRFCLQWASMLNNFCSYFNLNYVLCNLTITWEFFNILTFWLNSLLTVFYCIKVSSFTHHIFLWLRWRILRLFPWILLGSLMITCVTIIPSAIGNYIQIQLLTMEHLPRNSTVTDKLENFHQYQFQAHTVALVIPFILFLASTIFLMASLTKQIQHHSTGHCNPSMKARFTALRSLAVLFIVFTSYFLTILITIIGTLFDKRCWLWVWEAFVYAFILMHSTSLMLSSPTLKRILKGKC
Procedure: as §1

[1] = maximal signal amplitude, sweet compound alone
[2] = mogroside V in the presence of thaumatin 0 µM
[3] = read-out: EC50 value, sweet compound alone
[4] = neotame in the presence of D-allulose 0 mM
[5] = RebM in the presence of mogroside V 0 µM

| Response of TAS2R1 (TAS2R1) | Response of TAS2R42 (TAS2R42) | Response of TAS2R16 (TAS2R16) | Max ΔF/F0 (TAS1R2/TAS1R3; [1]) | EC50 (TAS1R2/TAS1R3; [3]) [µM] | Compound | also measured |
| --- | --- | --- | --- | --- | --- | --- |
| #^a | − | − | 0.13 ± 0.01 | 78 ± 11 | OC[C@H]1O[C@H](O[C@]2(CCl)O[C@H](CCl)[C@@H](O)[C@@H]2O)[C@H](O)[C@@H](O)[C@H]1Cl [Sucralose, sucralose] | EC50 (TAS2R1; TAS2R1 EC50): > 100000 µM; concentration at which maximal signal amplitude is reached (TAS1R2/TAS1R3): below 1 mM; Max ΔF/F0 (TAS1R2/TAS1R3; sucralose in the presence of Ace-K 0 µM): 0.13 ± 0.01; Max ΔF/F0 (TAS1R2/TAS1R3; sucralose in the presence of Ace-K 10 µM): 0.15 ± 0.01; Max ΔF/F0 (TAS1R2/TAS1R3; sucralose in the presence of Ace-K 30 µM): 0.12 ± 0.01; Max ΔF/F0 (TAS1R2/TAS1R3; sucralose in the presence of Ace-K 100 µM): 0.14 ± 0.01 |
| − | − | − | 0.12 ± 0.01 |  | thaumatin | activation of the sweet taste receptor by the compound alone (TAS1R2/TAS1R3; concentrations less than 3 µM): unable to activate the sweet taste receptor on its own |

Second part, the compound before the results:

| Compound | Response of TAS2R1 (TAS2R1) | Response of TAS2R42 (TAS2R42) | Response of TAS2R16 (TAS2R16) | Max ΔF/F0 (TAS1R2/TAS1R3; [1]) | EC50 (TAS1R2/TAS1R3; [3]) [µM] | also measured |
| --- | --- | --- | --- | --- | --- | --- |
| CC1=CC(=O)NS(=O)(=O)O1 [Ace-K, acesulfame-K] | − | − | − |  |  | EC50 (TAS1R2/TAS1R3): 410 ± 94 µM |
| O=C(CO)[C@H](O)[C@H](O)[C@H](O)CO [D-allulose] | − | + | + | 0.50 ± 0.12 |  | activation of the sweet taste receptor by the compound alone (TAS1R2/TAS1R3; 3 to 30 mM): did not activate the sweet taste receptor; concentrations at which TAS2R16 was activated (TAS2R16): > 300 mM |
| OC[C@@H](O)[C@@H](O)CO [Erythritol, erythritol] | − | − | − | 0.06 ± 0.01 |  | EC50 (TAS1R2/TAS1R3): 56000 ± 10000 µM |
| C[C@H](CC[C@@H](O[C@@H]1O[C@H](CO[C@@H]2O[C@H](CO)[C@@H](O)[C@H](O)[C@H]2O)[C@@H](O)[C@H](O)[C@H]1O[C@@H]1O[C@H](CO)[C@@H](O)[C@H](O)[C@H]1O)C(C)(C)O)[C@H]1CC[C@@]2(C)[C@@H]3CC=C4[C@@H](CC[C@H](O[C@@H]5O[C@H](CO[C@@H]6O[C@H](CO)[C@@H](O)[C@H](O)[C@H]6O)[C@@H](O)[C@H](O)[C@H]5O)C4(C)C)[C@]3(C)[C@H](O)C[C@]12C [Mogroside V, mogroside V] | − | − | + | 0.14 ± 0.01 | 23 ± 2 | concentration of saturation of the sweet taste receptor (TAS1R2/TAS1R3): ~500 µM; decrease in the EC50 values (TAS1R2/TAS1R3; in the presence of thaumatin 0.3 to 10 µM): 3 fold; decrease in the EC50 value (TAS1R2/TAS1R3; mogroside V in the presence of 10 µM thaumatin): 4 fold; EC50 (TAS1R2/TAS1R3; [2]): 29 ± 4 µM; Max ΔF/F0 (TAS1R2/TAS1R3; [2]): 0.14 ± 0.01; Max ΔF/F0 (TAS1R2/TAS1R3; mogroside V in the presence of thaumatin 0.03 µM): 0.19 ± 0.01; Max ΔF/F0 (TAS1R2/TAS1R3; mogroside V in the presence of thaumatin 1 µM): 0.18 ± 0.04; Max ΔF/F0 (TAS1R2/TAS1R3; mogroside V in the presence of thaumatin 3 µM): 0.18 ± 0.01; Max ΔF/F0 (TAS1R2/TAS1R3; mogroside V in the presence of thaumatin 10 µM): 0.17 ± 0.01; EC50 (TAS2R16; read-out: TAS2R16 EC50): 1180 ± 440 µM |
| COC(=O)[C@H](Cc1ccccc1)NC(=O)[C@H](CC(=O)O)NCCC(C)(C)C [Neotame] | − | − | − | 0.16 ± 0.01 | 2.26 ± 0.23 | EC50 (TAS1R2/TAS1R3; [4]): 2.37 ± 0.34 µM; Max ΔF/F0 (TAS1R2/TAS1R3; [4]): 0.16 ± 0.01; Max ΔF/F0 (TAS1R2/TAS1R3; neotame in the presence of D-allulose 3 mM): 0.17 ± 0.01; Max ΔF/F0 (TAS1R2/TAS1R3; neotame in the presence of D-allulose 10 mM): 0.21 ± 0.01; Max ΔF/F0 (TAS1R2/TAS1R3; neotame in the presence of D-allulose 30 mM): 0.17 ± 0.00; increase in sweetness potency (TAS1R2/TAS1R3; neotame with addition of D-allulose (3 to 30 mM), leftward shift of dose–response curves): approximately 2.5 fold |
| C=C1C[C@@]23CC[C@H]4[C@@](C)(CCC[C@@]4(C)C(=O)O[C@@H]4O[C@H](CO)[C@@H](O)[C@H](O[C@@H]5O[C@H](CO)[C@@H](O)[C@H](O)[C@H]5O)[C@H]4O[C@@H]4O[C@H](CO)[C@@H](O)[C@H](O)[C@H]4O)[C@@H]2CC[C@]1(O[C@@H]1O[C@H](CO)[C@@H](O)[C@H](O[C@@H]2O[C@H](CO)[C@@H](O)[C@H](O)[C@H]2O)[C@H]1O[C@@H]1O[C@H](CO)[C@@H](O)[C@H](O)[C@H]1O)C3 [RebM, Rebaudioside M] | − | − | − | 0.16 ± 0.01 | 34 ± 2 | EC50 (TAS1R2/TAS1R3; [5]): 36 ± 2 µM; Max ΔF/F0 (TAS1R2/TAS1R3; [5]): 0.17 ± 0.01; Max ΔF/F0 (TAS1R2/TAS1R3; RebM in the presence of mogroside V 0.03 µM): 0.16 ± 0.01; Max ΔF/F0 (TAS1R2/TAS1R3; RebM in the presence of mogroside V 1 µM): 0.18 ± 0.01; Max ΔF/F0 (TAS1R2/TAS1R3; RebM in the presence of mogroside V 3 µM): 0.17 ± 0.01; Max ΔF/F0 (TAS1R2/TAS1R3; RebM in the presence of mogroside V 5 µM): 0.12 ± 0.01; Max ΔF/F0 (TAS1R2/TAS1R3; RebM in the presence of mogroside V 10 µM): 0.12 ± 0.01 |
